Assay results published in US5817677A, “5-membered heterocycles, medicaments containing these compounds, their use and processes for their preparation” (priority 1995, dated 1998).
Counter-ions that a name gives are not always drawn.

Key:
human platelets = experiment: Inhibition of the binding of ^3 H-BIBU 52 to human platelets (fibrinogen binding test); settings: ^3 H-BIBU 52 5 nM, human platelet-rich plasma, room temperature, 20 minutes; 50% inhibition of binding
Description: 1. Inhibition of the binding of ^3 H-BIBU 52 to human platelets
The free and bound ligand is separated by centrifugation and quantitatively determined by scintillation counting. From the measurements, the inhibition of ^3 H-BIBU 52 binding by the test substance is determined.
For this purpose, donor blood is taken from an anticubital vein and anticoagulated with trisodium citrate (final concentration 13 mM). The blood is centrifuged at 170×g for 10 minutes and the supernatant platelet-rich plasma (PRP) is removed. The remaining blood is intensely centrifuged off once more to obtain plasma. The PRP is diluted 1:10 with autologous plasma. […] are incubated with […] of physiological saline solution, 100 ml of test substance solution, 50 ml of ^14 C-sucrose (3700 Bq) and 50 ml of ^3 H-BIBU-52 (final concentration: 5 nM at room temperature for 20 minutes. To measure the non-specific binding, instead of the test substance 5 ml of BIBU 52 (final concentration: […]) are employed. The samples are centrifuged at 10,000×g for 20 seconds and the supernatant is removed. 100 ml of this are measured to determine the free ligand. The pellet is dissolved in 500 ml of 0.2N NaOH, and 450 ml are treated with 2 ml of scintillator and 25 ml of 5N Hcl and measured. The residual plasma still remaining in the pellet is determined from the ^14 C content, the bound ligand from ^3 H-measurement.

platelet aggregation = experiment: Inhibition of collagen-induced platelet aggregation (Born and Cross) in platelet-rich plasma; type: cell-based, human (platelet-rich plasma of healthy subjects); settings: human platelet-rich plasma, 10 minutes preincubation at 37° C., 50% change in optical density
Description: 2. Antithrombotic effect Platelets aggregation is measured by the method of Born and Cross (J. Physiol. 170, 397 (1964)) in platelet-rich plasma of healthy subjects. To inhibit clotting, the blood is treated with sodium citrate, 3.14% in the volume ratio 1:10. Collagen-induced aggregation The course of the decrease in the optical density of the platelet suspension is measured and recorded photometrically after addition of the aggregation-inducing substance. From the angle of inclination of the density curve, the aggregation rate is deduced. The point of the curve at which the greatest light transmission exists is used to calculate the optical density. The amount of collagen is selected to be as low as possible, but in such a way that a reaction curve with an irreversible course results. Commercially available collagen from Hormonchemie, Munich, is used. Before the addition of collagen, the plasma is in each case incubated at 37° C. with the substance for 10 minutes. From the measurements obtained, an EC50 is determined graphically which relates to a 50% change in the optical density in the sense of an inhibition of aggregation.

| Compound | IC50 (human platelets) [nM] | EC50 (platelet aggregation) [nM] |
| --- | --- | --- |
| O=C(O)CC[C@H]1CC[C@H](NC(=O)c2cn(C3CCNCC3)cn2)CC1 [Example 4, 4-[[trans-4-(2-Carboxyethyl)cyclohexyl]aminocarbonyl]-1-(4-piperidyl)imidazole dihydrochloride] | 120 | 160 |
| O=C(O)CO[C@H]1CC[C@H](NC(=O)c2cnc(C3CCNCC3)s2)CC1 [2(12), 5-[[trans-4-(Carboxymethoxy)cyclohexyl]aminocarbonyl]-2-(4-piperidyl)-1,3-thiazole hydrobromide] | 72 | 140 |
| O=C(/C=C/c1cn(C2CCNCC2)cn1)N[C@H]1CC[C@H](C(=O)O)CC1 [4(8), 4-[trans-2-[(trans-4-Carboxycyclohexyl)aminocarbonyl]-ethenyl]-1-(4-piperidyl)imidazole dihydrochloride] | 2500 | 1800 |
| CS(=O)(=O)N(CC(=O)O)[C@H]1CC[C@H](C(=O)Nc2cn(C3CCNCC3)cn2)CC1 [5(2), 4-[[trans-4-(N-Carboxymethyl-N-methanesulphonylamino)-cyclohexyl]carbonylamino]-1-(4-piperidyl)imidazole dihydrochloride] | 1600 | 3800 |
| COC(=O)COc1ccc(NC(=O)c2sc(C3CCNCC3)nc2C)cc1 [2(3), 5-[[4-(Methoxycarbonylmethoxy)phenyl]aminocarbonyl]-4-methyl-2-(4-piperidyl)-1,3-thiazole hydrobromide] | 300 | 140 |
| O=C(O)COc1ccc(NC(=O)c2nnc(C3CCNCC3)s2)cc1 [4(6), 5-[[4-(Carboxymethoxy)phenyl]aminocarbonyl]-2-(4piperidyl)-1,3,4-thiadiazole hydrochloride] | 64 | 170 |
| O=C(N[C@H]1CC[C@H](C(=O)O)CC1)c1cn(CCC2CCNCC2)cn1 [4(27), 4-[[trans-4-Carboxycyclohexyl]aminocarbonyl]-1-[2-(4-piperidyl)ethyl]imidazole dihydrochloride] | 190 | 280 |
| O=C(O)COc1ccc(NC(=O)c2cnc(C3CCNCC3)s2)cc1 [4(19), 5-[[4-(Carboxymethoxy)phenyl]aminocarbonyl]-2-(4-piperidyl)-1,3-thiazole hydrate] | 38 | 100 |
| O=C(O)CC[C@H]1CC[C@H](NC(=O)c2cnc(C3CCNCC3)s2)CC1 [4(20), 5-[[trans-4-(2-Carboxyethyl)cyclohexyl]aminocarbonyl]-2-(4-piperidyl)-1,3-thiazole hydrobromide] | 63 | 120 |
| Cc1nc(C2CCNCC2)sc1C(=O)Nc1ccc(OCC(=O)O)cc1 [4(3), 5-[[4-(Carboxymethoxy)phenyl]aminocarbonyl]-4-methyl-2-(4-piperidyl)-1,3-thiazole hydrobromide] | 45 | 130 |
